This is an account of results in patent US20090048301A1 (IMCLONE SYSTEMS INCORPORATED, priority 2003, published 2009).

This experiment concerns bovine tubulin. The experiment in a line: In vitro tubulin polymerization assay (turbidity at 340 nm). Type of experiment: biochemical. Particulars: 10 μM compound, 30 minute data point, vs 1% DMSO control. Here is the method:
Briefly, tubulin polymerization is a kinetic process that is temperature-dependent and requires GTP and was performed as follows. Soluble tubulin dimers polymerize into microtubules upon warming, and polymerization in vitro correlates with an increase in turbidity (measured at 340 nm). Lyophilized bovine tubulin (HTS Tubulin—97% tubulin, <3% MAPs—Cytoskeleton Inc.) was ressuspended in G-PEM buffer (80 mM PIPES pH 7, 1 mM EGTA, 1 mM MgCl2, 1 mM GTP, 5% glycerol) to a final concentration of 3 mg/ml and kept at 4° C. Compounds in 100× stock solutions in DMSO were dotted to pre-warmed 96-well plates (Corning Costar 3696), the plates were transferred to a 37° C. plate reader (SPECTRAmax Plus, Molecular Devices), cold tubulin was added to the wells, and the plates were shaken for mixing. The absorbance at 340 nm was determined at one minute intervals for 30 minutes. Kinetic curves with 30 points each were collected for each compound, and the dynamic range was between 0 and 0.4 OD units. The percentage inhibition values were calculated using the 30 minute data point and based on control samples (treated with 1% DMSO only). The assay is a modified version of the HTS kit sold by Cytoskeleton (1830 S. Acoma St., Denver, Colo.), adapted to maximize throughput and reduce time, without reduction in dynamic range or sensitivity, while retaining the ability to detect compounds that inhibit or enhance tubulin polymerization.
Tubulin polymerization is a kinetic process that is temperature-dependent and requires GTP. Soluble tubulin dimers polymerize into microtubules upon warming, and polymerization in vitro correlates with an increase in turbidity (measured at 340 nm). Liophilized bovine tubulin (HTS Tubulin—97% tubulin, <3% MAPs—Cytoskeleton Inc.) was ressuspended in G-PEM buffer (80 mM PIPES pH 7, 1 mM EGTA, 1 mM MgCl2, 1 mM GTP, 5% glycerol) to a final concentration of 3 mg/ml and kept at 4° C. Compounds in 100× stock solutions in DMSO were dotted to pre-warmed 96-well plates (Corning Costar 3696), the plates were immediately transferred to a 37° C. plate reader (SPECTRAmax Plus, Molecular Devices), cold tubulin was added to the wells, plates were shaken for mixing, and absorbance at 340 nm was read every minute for 30 minutes. Kinetic curves with 30 points each were collected for each compound, and the dynamic range was between 0 and 0.4 OD units. Percentage inhibition values were calculated using the 30 minute data point, based on control samples (treated with 1% DMSO only). This assay is a modified version of the HTS kit sold by Cytoskeleton, adapted to maximize throughput and reduce time, without reduction in dynamic range or sensitivity, while retaining the ability to detect compounds that inhibit or enhance tubulin polymerization.
For the compound `COc1cccc(-c2nnc(-c3cccnc3NCc3ccncc3)[nH]2)c1` [Compound 94, {3-[5-(3-Methoxy-phenyl)-4H-[1,2,4]triazol-3-yl]-pyridin-2-yl}-pyridin-4-ylmethyl-amine], the “Tubulin Assay: percent inhibition at 10 μM based on 30 minute data” value (from here on “Tubulin Assay: percent inhibition”) came to 43%. As for `COc1cccc(-c2nnc(-c3cccnc3NCc3ccco3)[nH]2)c1` [Compound 95, Furan-2-ylmethyl-{3-[5-(3-methoxy-phenyl)-4H-[1,2,4]triazol-3-yl]-pyridin-2-yl}-amine], the figure is 41%; as for `FC(F)(F)c1cccc(-c2nnc(-c3cccnc3NCc3ccco3)[nH]2)c1` [Compound 96, Furan-2-ylmethyl-{3-[5-(3-trifluoromethyl-phenyl)-4H-[1,2,4]triazol-3-yl]-pyridin-2-yl}-amine], 20%.

As to `CS(=O)(=O)c1ccc(-c2nnc(-c3cccnc3NCCc3cccnc3)[nH]2)cc1` [Compound 99, {3-[5-(4-Methanesulfonyl-phenyl)-4H-[1,2,4]triazol-3-yl]-pyridin-2-yl}-(2-pyridin-3-yl-ethyl)-amine], the “Tubulin Assay: percent inhibition” value is reported as 47%. Take `c1cnc(NCc2ccc3c(c2)OCCO3)c(-c2nnc(-c3ccc4c(c3)OCO4)[nH]2)c1` [Compound 104, [3-(5-Benzo[1,3]dioxol-5-yl-4H-[1,2,4]triazol-3-yl)-pyridin-2-yl]-(2,3-dihydro-benzo[1,4]dioxin-6-ylmethyl)-amine]: the “Tubulin Assay: percent inhibition” value was determined as 21%.

As for `CS(=O)(=O)c1ccc(-c2nnc(-c3cccnc3NCc3cccc(F)c3)[nH]2)cc1` [Compound 107, (3-Fluoro-benzyl)-{3-[5-(4-methanesulfonyl-phenyl)-4H-[1,2,4]triazol-3-yl]-pyridin-2-yl}-amine], the “Tubulin Assay: percent inhibition” value was determined as 37%. For the compound `COc1cccc(-c2nnc(-c3cccnc3OCc3ccc4c(c3)OCO4)[nH]2)c1` [Compound 110, 2-(Benzo[1,3]dioxol-5-ylmethoxy)-3-[5-(3-methoxy-phenyl)-4H-[1,2,4]triazol-3-yl]-pyridine], the “Tubulin Assay: percent inhibition” value was found to be 20%. As for `COc1cccc(CNc2nnc(-c3ccccc3NCc3ccncc3)[nH]2)c1` [Compound 112, (3-Methoxy-benzyl)-(5-{2-[(pyridin-4-ylmethyl)-amino]-phenyl}-4H-[1,2,4]triazol-3-yl)-amine], the “Tubulin Assay: percent inhibition” value came out at 49%. Turning to `COc1ccc(CNc2nnc(-c3ccccc3NCc3ccncc3)[nH]2)cc1` [Compound 113, (4-Methoxy-benzyl)-(5-{2-[(pyridin-4-ylmethyl)-amino]-phenyl}-4H-[1,2,4]triazol-3-yl)-amine], the “Tubulin Assay: percent inhibition” value is 24%.

As for `COc1ccc(Nc2nnc(-c3ccccc3NCc3ccncc3)[nH]2)c(OC)c1` [Compound 114, (2,4-Dimethoxy-phenyl)-(5-{2-[(pyridin-4-ylmethyl)-amino]-phenyl}-4H-[1,2,4]triazol-3-yl)-amine], the “Tubulin Assay: percent inhibition” value is listed as 24%. Consider `COc1ccc(Nc2nnc(-c3ccccc3NCc3ccncc3)[nH]2)cc1` [Compound 116, (4-Methoxy-phenyl)-(5-{2-[(pyridin-4-ylmethyl)-amino]-phenyl}-4H-[1,2,4]triazol-3-yl)-amine], for which the “Tubulin Assay: percent inhibition” value stood at 20%. For `c1ccc(-c2nnc(Nc3ccc4c(c3)OCO4)[nH]2)c(NCc2ccc3[nH]cnc3c2)c1` [Compound 118, Benzo[1,3]dioxol-5-yl-(5-{2-[(1H-benzoimidazol-5-ylmethyl)-amino]-phenyl}-4H-[1,2,4]triazol-3-yl)-amine], the “Tubulin Assay: percent inhibition” value was 41%. As for `COc1cc(Nc2nnc(-c3ccccc3NCc3ccc(F)c(F)c3)[nH]2)cc(OC)c1` [Compound 120, {5-[2-(3,4-Difluoro-benzylamino)-phenyl]-4H-[1,2,4]triazol-3-yl}-(3,5-dimethoxy-phenyl)-amine], the “Tubulin Assay: percent inhibition” value amounted to 63%. As for `CN(C)c1ccc(Nc2nnc(-c3ccccc3NCc3ccc(F)c(F)c3)[nH]2)cc1` [Compound 121, {5-[2-(3,4-Difluoro-benzylamino)-phenyl]-4H-[1,2,4]triazol-3-yl}-(4-dimethylamino-phenyl)-amine], the figure is 23%. Turning to `O=[N+]([O-])c1cc(C(F)(F)F)ccc1-c1nnc(Nc2ccc3c(c2)OCO3)[nH]1` [Compound 124b], the “Tubulin Assay: percent inhibition” value came to 26%. `Nc1cc(C(F)(F)F)ccc1-c1nnc(Nc2ccc3c(c2)OCO3)[nH]1` [Compound 124c, [5-(2-Amino-4-trifluoromethyl-phenyl)-4H-[1,2,4]triazol-3-yl]-benzo[1,3]dioxol-5-yl-amine]: the “Tubulin Assay: percent inhibition” value came to 61%. Take `FC(F)(F)c1ccc(-c2nnc(Nc3ccc4c(c3)OCO4)[nH]2)c(NCc2cccnc2)c1` [Compound 125, Benzo[1,3]dioxol-5-yl-(5-{2-[(pyridin-3-ylmethyl)-amino]-4-trifluoromethyl-phenyl}-4H-[1,2,4]triazol-3-yl)-amine]: the “Tubulin Assay: percent inhibition” value was determined as 96%. Under `COc1cc(CNc2cc(C(F)(F)F)ccc2-c2nnc(Nc3ccc4c(c3)OCO4)[nH]2)cc(OC)c1` [Compound 126, Benzo[1,3]dioxol-5-yl-{5-[2-(3,5-dimethoxy-benzylamino)-4-trifluoromethyl-phenyl]-4H-[1,2,4]triazol-3-yl}-amine] stands 93%; under `O=[N+]([O-])c1ccccc1-c1nnc(Nc2ccc3c(c2)OCCO3)[nH]1` [Compound 127a, (2,3-Dihydro-benzo[1,4]dioxin-6-yl)-[5-(2-nitro-phenyl)-4H-[1,2,4]triazol-3-yl]-amine], 22%; under `Nc1ccccc1-c1nnc(Nc2ccc3c(c2)OCCO3)[nH]1` [Compound 127b, [5-(2-amino-phenyl)-4H-[1,2,4]triazol-3-yl]-(2,3-dihydro-benzo[1,4]dioxin-6-yl)-amine], 20%. As for `N#Cc1ccc(S(=O)(=O)Nc2ccccc2-c2nnc(Nc3ccc4c(c3)OCCO4)[nH]2)cc1` [Compound 128, 4-Cyano-N-{2-[5-(2,3-dihydro-benzo[1,4]dioxin-6-ylamino)-4H-[1,2,4]triazol-3-yl]-phenyl}-benzenesulfonamide], the “Tubulin Assay: percent inhibition” value is recorded as 42%. Take `CS(=O)(=O)c1ccc(-c2nnc(-c3ccccc3NCC3CCOC3)[nH]2)cc1` (stereo not drawn) [Compound 134, {2-[5-(4-Methanesulfonyl-phenyl)-4H-[1,2,4]triazol-3-yl]-phenyl}-(tetrahydro-furan-3-ylmethyl)-amine]: the “Tubulin Assay: percent inhibition” value amounted to 34%.

With `COc1cc(CNc2ccccc2-c2nnc(-c3cccc(OC)c3)[nH]2)cc(OC)c1` [Compound 135, (3,5-Dimethoxy-benzyl)-{2-[5-(3-methoxy-phenyl)-4H-[1,2,4]triazol-3-yl]-phenyl}-amine], the “Tubulin Assay: percent inhibition” value is on record as 23%. As to `COc1cccc(-c2nnc(-c3ccccc3NCc3ccc4[nH]cnc4c3)[nH]2)c1` [Compound 137, (1H-Benzoimidazol-5-ylmethyl)-{2-[5-(3-methoxy-phenyl)-4H-[1,2,4]triazol-3-yl]-phenyl}-amine], the “Tubulin Assay: percent inhibition” value amounted to 28%.

Consider `FC(F)(F)c1ccc(-c2nnc(-c3ccccc3NCc3ccc4c(c3)OCO4)[nH]2)cc1` [Compound 138, Benzo[1,3]dioxol-5-ylmethyl-{2-[5-(4-trifluoromethyl-phenyl)-4H-[1,2,4]triazol-3-yl]-phenyl}-amine], for which the “Tubulin Assay: percent inhibition” value turned out to be 28%.

With `FC(F)(F)c1ccc(-c2nnc(-c3ccccc3NCc3ccc4c(c3)OCCO4)[nH]2)cc1` [Compound 139, (2,3-Dihydro-benzo[1,4]dioxin-6-ylmethyl)-{2-[5-(4-trifluoromethyl-phenyl)-4H-[1,2,4]triazol-3-yl]-phenyl}-amine], the “Tubulin Assay: percent inhibition” value worked out at 21%.

As to `COc1cc(CNc2ccccc2-c2nnc(-c3ccc(C(F)(F)F)cc3)[nH]2)cc(OC)c1` [Compound 140, (3,5-Dimethoxy-benzyl)-{2-[5-(4-trifluoromethyl-phenyl)-4H-[1,2,4]triazol-3-yl]-phenyl}-amine], the “Tubulin Assay: percent inhibition” value was determined as 20%.
